Test system: CEBPB expression in LPS-stimulated THP-1 cells
Assay: CEBPB expression in nascent RNAs of LPS-stimulated THP-1 cells (nascent RNA sequencing)
Format: cell-based
Conditions: 10 ng/mL LPS and 250 μM 2′FL, CEBPB enhanced and upregulated
Method: THP-1 Cells were treated with 10 ng/mL LPS or 10 ng/mL LPS and 250 μM 2′F and extracted for nascent RNAs at 30 min and 24 hours. The nascent RNAs were sequenced and analyzed as described in Azofeifa et al. (2018), Genome Res. 28: 334-344; the contents of which are expressly incorporated by reference herein.

Compound: CC1O[C@@H](OC2[C@H](O[C@H]3C(O)C(O)C(O)O[C@H]3CO)OC(CO)[C@H](O)[C@@H]2O)C(O)[C@@H](O)[C@@H]1O (some centres unmarked) [2′FL, 2′-fucosyllactose]
- CEBPB maximum enrichment score (nascent RNAs, 2′FL+LPS treated cells versus LPS alone) (30 min): 40
- CEBPB maximum enrichment score (nascent RNAs, 2′FL+LPS treated cells versus LPS alone) (24 hours): 20

From US20240148040A1, “METHODS OF REDUCING EXERCISE-INDUCED INJURY OR ENHANCING MUSCLE RECOVERY AFTER EXERCISE” (intrinsic Medicine, Inc., priority 2020, published 2024)
